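Growth conditions: 96-well plates. Treatment: test compound, 48 hours, 5 concentrations. Analysis: linear interpolation between bracketing concentrations; unreached endpoints set to highest concentration. GI50: concentration for 50% inhibition of growth.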 Active and inactive are the calls of the source. No stated cut-off is given here; in the data, active = GI50 up to about 1.1 µM and inactive = higher.

The values that follow come from ChEMBL document CHEMBL1201862, “PubChem BioAssay data set” (2004).

Some test systems named below: A498; CAKI-1; HCT-15; LOX IMVI; MDA-MB-435; MDA-N; NCI-H23; NCI-H460; OVCAR-3; RPMI-8226; SF-539; SK-OV-3; SN12C; SNB-19; SW-620; U-251; UACC-62.
Common to all, as to experiment: DTP human tumour cell line panel, 48 h

By GI50 is commonly meant the concentration giving 50% growth inhibition. Turning to `CC1(C)OC(CCC#N)CN1C(=O)OCc1ccccc1` (stereo unspecified), the GI50 with A498 was > 100 µM (inactive); in the experiment with CAKI-1 it was > 100 µM (inactive); in the experiment with HCT-15, above 100 µM; with LOX IMVI it was > 100 µM (inactive); in the experiment with MDA-MB-435, > 100 µM (inactive); with MDA-N it was > 100 µM (inactive). The GI50 with NCI-H23, in the experiment with NCI-H460, with OVCAR-3, in the experiment on RPMI-8226, in the experiment on SF-539 and in the experiment on SK-OV-3 was > 100 µM (inactive) throughout. For the same compound, the GI50 in the experiment with SN12C was > 10 µM (inactive); with SNB-19 it was 9.57 µM (inactive); in the experiment with SW-620, > 100 µM (inactive); with U-251 it was > 100 µM (inactive); in the experiment with UACC-62, > 100 µM (inactive).

`CC(C)(CO)CNc1nc(N)nc(Cl)c1/C=N/O`: the GI50 with A498 was 23.9 µM (inactive); with CAKI-1 it was 23.8 µM (inactive); with HCT-15 it was 61.7 µM; with LOX IMVI, 12.1 µM (inactive); in the experiment on MDA-MB-435, 43.9 µM (inactive); in the experiment with MDA-N, 41.2 µM (inactive). The GI50 in the experiment with NCI-H23 is 3.45 µM (inactive); with NCI-H460 it was 30 µM (inactive); in the experiment on OVCAR-3 it was 23 µM (inactive); in the experiment on RPMI-8226, 15.2 µM (inactive); in the experiment on SF-539 it was 30.6 µM (inactive); in the experiment on SN12C it was 72.4 µM (inactive). Further, the GI50 is 82.6 µM (inactive) in the experiment with SW-620, 48.6 µM (inactive) with U-251 and 31.8 µM (inactive) with UACC-62.

Turning to `O=C(CN1CCCCC1)Nc1ccc2c(c1)C1Oc3ccccc3CC1CO2` (stereo unspecified), the GI50 in the experiment on A498 is 30.3 µM (inactive); in the experiment on CAKI-1, 35.9 µM (inactive); in the experiment with HCT-15, 15.5 µM; in the experiment with LOX IMVI, 16.4 µM (inactive); with MDA-MB-435, 18.7 µM (inactive); in the experiment with MDA-N, 19 µM (inactive). Further, the GI50 was 24.9 µM (inactive) in the experiment with NCI-H23; 27.8 µM (inactive) in the experiment on OVCAR-3; 28.8 µM (inactive) in the experiment on RPMI-8226; 19.1 µM (inactive) with SF-539; 32.8 µM (inactive) in the experiment with SK-OV-3; 28.4 µM (inactive) in the experiment on SN12C. Moreover, the results for the GI50 in the experiment on SW-620, in the experiment on U-251 and with UACC-62 were 18.8 µM (inactive), 18 µM (inactive) and 16.4 µM (inactive), respectively.

For the compound `COC(=O)c1ccc(Cc2cc(Cc3ccc(C(=O)OC)cc3)cc(Cc3ccc(C(=O)OC)cc3)c2)cc1`, the GI50 with A498 was > 25 µM (inactive); in the experiment with HCT-15, above 25 µM; with LOX IMVI it was > 25 µM (inactive); in the experiment on MDA-MB-435 it was > 25 µM (inactive); with MDA-N it was > 25 µM (inactive); in the experiment with NCI-H460 it was > 25 µM (inactive). In addition, the GI50 in the experiment on OVCAR-3, in the experiment on RPMI-8226, in the experiment with SF-539, in the experiment with SK-OV-3, in the experiment with SN12C and in the experiment with SNB-19 was > 25 µM (inactive) throughout. Further, the GI50 in the experiment with SW-620, in the experiment with U-251 and with UACC-62 was > 25 µM (inactive) in each case.

With `Cc1ccc2c(c1)C(=O)c1nc(C)ccc1C2=O`, the GI50 in the experiment on A498 is 59.3 µM (inactive); in the experiment on CAKI-1, 24.8 µM (inactive); with HCT-15 it was 22.6 µM; in the experiment on LOX IMVI it was 19.8 µM (inactive); with MDA-MB-435, 21.6 µM (inactive); in the experiment with MDA-N, 20.2 µM (inactive). For the same compound, the GI50 is 19.5 µM (inactive) in the experiment on NCI-H23; 57.1 µM (inactive) with OVCAR-3; 21.3 µM (inactive) with RPMI-8226; 21.7 µM (inactive) in the experiment with SF-539; > 100 µM (inactive) in the experiment on SK-OV-3; 26.5 µM (inactive) with SN12C. For the same compound, the GI50 with SNB-19 is 22.4 µM (inactive); in the experiment with SW-620, 33.5 µM (inactive); in the experiment on U-251 it was 35.5 µM (inactive); in the experiment with UACC-62, 24.3 µM (inactive).

With `O=C(CC(C(=O)c1ccsc1)c1ccc2c(c1)OCO2)c1ccccc1` (stereo unspecified), the GI50 is > 100 µM (inactive) in the experiment on A498; > 100 µM (inactive) in the experiment with CAKI-1; above 100 µM with HCT-15; > 100 µM (inactive) in the experiment on LOX IMVI; > 100 µM (inactive) in the experiment on MDA-MB-435; > 100 µM (inactive) with MDA-N. The GI50 in the experiment on NCI-H23 is 0.209 µM (active); in the experiment with NCI-H460, 94 µM (inactive); in the experiment on OVCAR-3 it was > 100 µM (inactive); in the experiment with RPMI-8226, > 100 µM (inactive); in the experiment on SF-539 it was > 100 µM (inactive); in the experiment with SK-OV-3, > 100 µM (inactive). Moreover, the GI50 with SN12C, in the experiment with SW-620, in the experiment with U-251 and in the experiment with UACC-62 was > 100 µM (inactive) each time.

With `CCCCCC(C)(C)CCC(=O)OC1OC(COC2OC(COC3OC(CO)C(O)C(O)C3O)C(O)C(O)C2O)C(O)C(O)C1O` (stereo unspecified), the GI50 in the experiment with A498 was > 100 µM (inactive); with HCT-15, above 100 µM; with LOX IMVI, > 100 µM (inactive); with MDA-MB-435, > 100 µM (inactive); with MDA-N, > 100 µM (inactive); in the experiment on NCI-H23, > 100 µM (inactive). Moreover, the GI50 in the experiment on NCI-H460, in the experiment with OVCAR-3, with RPMI-8226, in the experiment with SF-539, in the experiment with SK-OV-3 and in the experiment with SN12C was > 100 µM (inactive) throughout. The GI50 in the experiment on SNB-19, in the experiment on SW-620, with U-251 and in the experiment on UACC-62 was > 100 µM (inactive) each time.

Consider `CSc1nc2c(N)ncnc2n1C`, for which the GI50 was > 100 µM (inactive) in the experiment on A498; > 100 µM (inactive) with CAKI-1; above 100 µM in the experiment with HCT-15; > 100 µM (inactive) in the experiment with LOX IMVI; > 100 µM (inactive) with MDA-MB-435; > 100 µM (inactive) with MDA-N. In addition, the GI50 in the experiment on NCI-H460, with OVCAR-3, in the experiment on RPMI-8226, in the experiment with SF-539, with SK-OV-3 and with SN12C was > 100 µM (inactive) in each case. The GI50 in the experiment on SNB-19, with SW-620, in the experiment with U-251 and in the experiment with UACC-62 was > 100 µM (inactive) in each case.

Turning to `CN(C)c1n/c(=N/Cc2cccs2)ss1`, the GI50 in the experiment with A498 was > 10 µM (inactive); in the experiment with CAKI-1 it was > 10 µM (inactive); with HCT-15, above 10 µM; in the experiment with LOX IMVI, > 5.62 µM (inactive); in the experiment with MDA-MB-435 it was > 10 µM (inactive); in the experiment with MDA-N, > 10 µM (inactive). The GI50 is > 10 µM (inactive) with NCI-H23; > 10 µM (inactive) in the experiment on NCI-H460; > 10 µM (inactive) with OVCAR-3; > 3.04 µM (inactive) with RPMI-8226; > 10 µM (inactive) in the experiment on SF-539; > 10 µM (inactive) in the experiment with SK-OV-3. The GI50 in the experiment with SN12C, with SNB-19, in the experiment on SW-620, in the experiment on U-251 and in the experiment on UACC-62 was > 10 µM (inactive) each time.

Consider `Oc1ccc(/C=N/CC2CCCN3CCCCC23)cc1` (stereo unspecified), for which the GI50 was 26.5 µM (inactive) in the experiment on A498; 17.8 µM (inactive) in the experiment with CAKI-1; 24.4 µM in the experiment on HCT-15; 21.4 µM (inactive) with LOX IMVI; 14.1 µM (inactive) with MDA-MB-435; 18.4 µM (inactive) in the experiment on MDA-N. For the same compound, the GI50 in the experiment with NCI-H23 was 24.9 µM (inactive); with NCI-H460, 25.1 µM (inactive); with OVCAR-3, 29.4 µM (inactive); with RPMI-8226, 20.9 µM (inactive); in the experiment with SF-539, 62.1 µM (inactive); with SK-OV-3, 46 µM (inactive). Moreover, the GI50 with SN12C is 19.1 µM (inactive); in the experiment with SNB-19 it was 25.3 µM (inactive); in the experiment on U-251, 17.6 µM (inactive); in the experiment with UACC-62 it was 24.5 µM (inactive).

Turning to `COc1ccc(/C=C2\CCC(C)/C(=C\c3ccc(OC)c(OC)c3)C2=O)cc1OC` (stereo unspecified), the GI50 was 9.08 µM (inactive) in the experiment on A498; 5.82 µM (inactive) in the experiment with CAKI-1; 5.37 µM in the experiment on HCT-15; 4.33 µM (inactive) with LOX IMVI; 3.76 µM (inactive) in the experiment on MDA-MB-435; 5.87 µM (inactive) in the experiment with MDA-N. Moreover, the GI50 was 3.94 µM (inactive) with NCI-H23; 13.6 µM (inactive) with OVCAR-3; 2.51 µM (inactive) in the experiment with RPMI-8226; 3.42 µM (inactive) with SF-539; 9.2 µM (inactive) in the experiment on SK-OV-3; 7.29 µM (inactive) in the experiment with SN12C. The GI50 was 11.2 µM (inactive) with SNB-19, 6.59 µM (inactive) in the experiment with SW-620, 5.43 µM (inactive) in the experiment on U-251 and 6.21 µM (inactive) in the experiment on UACC-62.

As to `CCCCc1ccc(Nc2nc(Cl)c3ncn(C4CC(Oc5ccc(C)cc5)C(COc5ccc(C)cc5)O4)c3n2)cc1` (stereo unspecified), the GI50 in the experiment on A498 is > 100 µM (inactive); in the experiment with CAKI-1, 6.52 µM (inactive); with HCT-15 it was above 100 µM; in the experiment with LOX IMVI it was > 100 µM (inactive); with MDA-MB-435, > 100 µM (inactive); in the experiment on MDA-N, > 100 µM (inactive). For the same compound, the GI50 in the experiment on NCI-H23, in the experiment with OVCAR-3, with RPMI-8226, with SF-539, in the experiment with SK-OV-3 and with SN12C was > 100 µM (inactive) each time. For the same compound, the GI50 in the experiment with SNB-19, in the experiment with SW-620 and in the experiment with UACC-62 was > 100 µM (inactive) each time.

For `Cc1cc(NCc2ccccc2)c2ccccc2[n+]1CCCCCCCCCC[n+]1c(C)cc(NCc2ccccc2)c2ccccc21.[O-][Cl+3]([O-])([O-])[O-].[O-][Cl+3]([O-])([O-])[O-]`, the GI50 is 0.883 µM (active) in the experiment on A498; 1.44 µM (inactive) in the experiment on CAKI-1; 1.89 µM with HCT-15; 0.238 µM (active) in the experiment on LOX IMVI; 0.39 µM (active) in the experiment with MDA-MB-435; 0.374 µM (active) with MDA-N. Besides, the GI50 in the experiment with NCI-H23 is 0.247 µM (active); with NCI-H460, 0.228 µM (active); in the experiment on RPMI-8226, 0.124 µM (active); in the experiment on SF-539 it was 0.308 µM (active); with SK-OV-3, 0.365 µM (active); with SN12C, 0.279 µM (active). Moreover, the GI50 with SNB-19 was 0.252 µM (active); in the experiment on SW-620, 0.752 µM (active); in the experiment on U-251, 0.0964 µM (active); in the experiment with UACC-62 it was 0.31 µM (active).
